The values that follow come from ChEMBL document CHEMBL1135342, “Synthesis and evaluation of thymidine-5'-O-monophosphate analogues as inhibitors of Mycobacterium tuberculosis thymidylate kinase” (Bioorg Med Chem Lett, 2002).

The pKi is −log10 of the Ki, conventionally taken in molar units. Higher therefore signals a small Ki.

pKi: −log10 of the molar value.

The target of this experiment is T1, Thymidylate kinase (Mycobacterium tuberculosis, UniProt P9WKE1).
T1 sequence (P9WKE1 whole entry): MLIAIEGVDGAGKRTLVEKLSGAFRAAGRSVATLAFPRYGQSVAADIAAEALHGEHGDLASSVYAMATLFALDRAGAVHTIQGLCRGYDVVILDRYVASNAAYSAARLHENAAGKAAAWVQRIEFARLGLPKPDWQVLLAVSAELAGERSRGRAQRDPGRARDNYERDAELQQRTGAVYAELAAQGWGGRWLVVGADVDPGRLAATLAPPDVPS
As to the kind of experiment: Compound was tested for binding affinity against Mycobacterium tuberculosis thymidine monophosphate kinase.
The molecule `Cc1cn([C@@H]2O[C@H](COP(=O)(O)O)[C@@H](O)[C@H]2N)c(=O)[nH]c1=O` gave a negative logarithm of the Ki (pKi) of 4.26.

Regarding `Cc1cn([C@@H]2O[C@H](COP(=O)(O)O)[C@@H](N)[C@H]2O)c(=O)[nH]c1=O`, the pKi was 4.57.

For the molecule `Cc1cn([C@H]2C[C@H](N)[C@@H](COP(=O)(O)O)O2)c(=O)[nH]c1=O`, the pKi is 3.63.

The molecule `Cc1cn([C@@H]2O[C@H](COP(=O)(O)O)[C@@H](O)[C@H]2F)c(=O)[nH]c1=O` gave a pKi of 4.37.

`Cc1cn([C@@H]2O[C@H](COP(=O)(O)O)[C@@H](O)[C@H]2Cl)c(=O)[nH]c1=O` gave a pKi of 4.72.

For the molecule `Cc1cn([C@H]2C[C@H](N=[N+]=[N-])[C@@H](COP(=O)(O)O)O2)c(=O)[nH]c1=O` [AZIDOTHYMIDINE MONOPHOSPHATE], the pKi is 5.00.
